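1) Cells in 96-well plates. 2) Compound, 48 h, 5 concentrations. 3) Linear interpolation between surrounding doses. 4) Unreached endpoint = highest concentration. Abbreviation: GI50, concentration required for 50% inhibition of growth.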 Activity calls are given as the source filed them. Cut-off read from the data, not from the text of the source: active = GI50 up to about 1.1 µM and inactive = higher.
Columns and labels:
Assay in all cases: growth of human tumour cells (NCI), 48 h
A549 = system: A549
COLO 205 = system: COLO 205
HL-60 = system: HL-60
K562 = system: K562
KM-20L2 = system: KM-20L2
M14 = system: M14
M19-MEL = system: M19-MEL
MOLT-4 = system: MOLT-4
NCI-H460 = system: NCI-H460
NCI-H522 = system: NCI-H522
RPMI-8226 = system: RPMI-8226
SNB-19 = system: SNB-19
TK-10 = system: TK-10
UACC-257 = system: UACC-257
UO-31 = system: UO-31
DU-145 = system: DU-145
HOP-92 = system: HOP-92
MDA-MB-231 = system: MDA-MB-231
MDA-MB-435 = system: MDA-MB-435
SK-OV-3 = system: SK-OV-3

Row | Structure (SMILES) | GI50 (A549) | GI50 (COLO 205) | GI50 (HL-60) | GI50 (K562) | GI50 (KM-20L2) | GI50 (M14) | GI50 (M19-MEL) | GI50 (MOLT-4) | GI50 (NCI-H460) | GI50 (NCI-H522) | GI50 (RPMI-8226) | GI50 (SNB-19) | GI50 (TK-10) | GI50 (UACC-257) | GI50 (UO-31) | GI50 (DU-145) | GI50 (HOP-92) | GI50 (MDA-MB-231) | GI50 (MDA-MB-435) | GI50 (SK-OV-3)
1 | C[N+](C)(C)Cc1c(CC#N)[nH]c2ccccc12 | > 100 µM (inactive) | > 100 µM (inactive) | 36.9 µM (inactive) | 25.8 µM (inactive) | > 100 µM (inactive) | 84.7 µM (inactive) | > 100 µM (inactive) | 24.5 µM (inactive) | > 100 µM (inactive) | 36.8 µM (inactive) | 31.6 µM (inactive) | > 100 µM (inactive) | > 100 µM (inactive) | > 100 µM (inactive) | 76.7 µM (inactive) | – | – | – | – | –
2 | COc1cc2ccnc(C#N)c2cc1OCc1ccccc1 | > 100 µM (inactive) | – | – | > 100 µM (inactive) | > 100 µM (inactive) | > 100 µM (inactive) | – | > 100 µM (inactive) | > 100 µM (inactive) | 50 µM (inactive) | > 100 µM (inactive) | 84.1 µM (inactive) | > 100 µM (inactive) | > 100 µM (inactive) | > 100 µM (inactive) | – | – | – | – | –
3 | COc1c(C)cc2c(c1O)C1NC(C2)[C@H](O)N2C3COC(=O)[C@@]4(CS[C@@H](c5c(OC(C)=O)c(C)c6c(c53)OCO6)C12)NCCC1=C4NC2C=CC=CC12 (stereo partly specified) | < 0.01 µM (active) | < 0.01 µM (active) | < 0.01 µM (active) | < 0.01 µM (active) | < 0.01 µM (active) | < 0.01 µM (active) | < 0.01 µM (active) | < 0.01 µM (active) | < 0.01 µM (active) | – | < 0.01 µM (active) | < 0.01 µM (active) | < 0.01 µM (active) | – | 0.0148 µM (active) | – | – | – | – | –
4 | Cn1c2ccccc2n2c3nc4ccccc4nc3c(C#N)c12 | > 100 µM (inactive) | 70 µM (inactive) | > 87.9 µM (inactive) | 65.3 µM (inactive) | – | > 100 µM (inactive) | < 0.01 µM (active) | 57.8 µM (inactive) | 5.48 µM (inactive) | 5.9 µM (inactive) | 71 µM (inactive) | > 100 µM (inactive) | > 10 µM (inactive) | > 82.6 µM (inactive) | 77.3 µM (inactive) | > 100 µM (inactive) | > 100 µM (inactive) | > 97.1 µM (inactive) | > 85.7 µM (inactive) | 99.5 µM (inactive)
5 | O=Cc1cn(S(=O)(=O)c2ccccc2)c2ccccc12 | > 100 µM (inactive) | – | 16.7 µM (inactive) | 19.9 µM (inactive) | > 100 µM (inactive) | 31.3 µM (inactive) | 37.5 µM (inactive) | 16.3 µM (inactive) | > 100 µM (inactive) | – | 20.8 µM (inactive) | 54.2 µM (inactive) | > 100 µM (inactive) | 29.6 µM (inactive) | 18.7 µM (inactive) | – | – | – | – | > 100 µM (inactive)
6 | COc1ccc(C2=NC(C)(C)CO2)cc1 | > 100 µM (inactive) | > 100 µM (inactive) | > 100 µM (inactive) | > 100 µM (inactive) | > 100 µM (inactive) | – | > 100 µM (inactive) | – | > 100 µM (inactive) | – | > 100 µM (inactive) | > 100 µM (inactive) | > 100 µM (inactive) | > 100 µM (inactive) | – | – | > 100 µM (inactive) | – | – | –
7 | CC[P+](C)(Cc1ccccc1)c1ccccc1.O=C(OC(C(=O)[O-])C(OC(=O)c1ccccc1)C(=O)O)c1ccccc1 (stereo unspecified) | > 100 µM (inactive) | > 100 µM (inactive) | – | > 100 µM (inactive) | > 100 µM (inactive) | > 100 µM (inactive) | > 100 µM (inactive) | – | – | – | > 100 µM (inactive) | > 100 µM (inactive) | > 100 µM (inactive) | > 100 µM (inactive) | > 100 µM (inactive) | – | – | – | – | > 100 µM (inactive)
8 | O=C(c1ccccc1)c1nc2c(Cl)ccc(Cl)c2cc1C(Br)Br | 3.08 µM (inactive) | 3.19 µM (inactive) | – | 0.311 µM (active) | 1.04 µM (active) | 1.4 µM (inactive) | 1.83 µM (inactive) | 1.36 µM (inactive) | – | 1.54 µM (inactive) | 0.284 µM (active) | 1.54 µM (inactive) | 1.43 µM (inactive) | 0.419 µM (active) | 1.29 µM (inactive) | – | – | – | – | –
9 | O=c1c2ccccc2c2c3c1cccc3c1cccc3c(=O)c4ccccc4c2c31 | > 100 µM (inactive) | > 100 µM (inactive) | > 10 µM (inactive) | > 100 µM (inactive) | > 100 µM (inactive) | > 100 µM (inactive) | > 100 µM (inactive) | 46.3 µM (inactive) | > 100 µM (inactive) | > 100 µM (inactive) | – | > 100 µM (inactive) | > 100 µM (inactive) | > 100 µM (inactive) | > 100 µM (inactive) | – | > 100 µM (inactive) | – | – | > 100 µM (inactive)
10 | Cc1ccc(C)c(NC(=O)C(=O)C(C2C(C)CC(=O)C2CC(=O)O)[N+](=O)[O-])c1 (stereo unspecified) | > 100 µM (inactive) | > 100 µM (inactive) | > 100 µM (inactive) | > 100 µM (inactive) | > 100 µM (inactive) | > 100 µM (inactive) | > 100 µM (inactive) | > 100 µM (inactive) | > 100 µM (inactive) | – | > 100 µM (inactive) | > 100 µM (inactive) | > 100 µM (inactive) | > 100 µM (inactive) | > 100 µM (inactive) | – | > 100 µM (inactive) | – | – | > 100 µM (inactive)
11 | Cc1ccc(C)c2c1CCc1cc3ccccc3nc1-2 | > 100 µM (inactive) | > 100 µM (inactive) | – | > 100 µM (inactive) | > 100 µM (inactive) | > 100 µM (inactive) | > 100 µM (inactive) | > 100 µM (inactive) | > 100 µM (inactive) | > 100 µM (inactive) | > 100 µM (inactive) | > 100 µM (inactive) | > 100 µM (inactive) | > 100 µM (inactive) | > 100 µM (inactive) | – | – | – | – | > 100 µM (inactive)
12 | c1ccc(C[N+]23CN4CN(CN(C4)C2)C3)cc1 | 29.2 µM (inactive) | 18.5 µM (inactive) | 24.1 µM (inactive) | 29.7 µM (inactive) | – | 19.7 µM (inactive) | – | 22.7 µM (inactive) | 38.2 µM (inactive) | > 100 µM (inactive) | 22.5 µM (inactive) | 26.4 µM (inactive) | 84.5 µM (inactive) | 37.4 µM (inactive) | 20.8 µM (inactive) | 27.5 µM (inactive) | 36.1 µM (inactive) | 20.1 µM (inactive) | 22 µM (inactive) | > 100 µM (inactive)
13 | CCOC(=O)CCC(NC(=O)c1ccc(Oc2nc3ccccc3nc2-c2ccccc2)cc1)C(=O)OCC (stereo unspecified) | 37.8 µM (inactive) | > 100 µM (inactive) | > 100 µM (inactive) | > 60.4 µM (inactive) | – | > 62.1 µM (inactive) | – | > 100 µM (inactive) | > 80.4 µM (inactive) | 11.3 µM (inactive) | 37.6 µM (inactive) | 22 µM (inactive) | 17.5 µM (inactive) | > 100 µM (inactive) | 34 µM (inactive) | 41 µM (inactive) | 5.51 µM (inactive) | 10.6 µM (inactive) | > 52.1 µM (inactive) | 27.9 µM (inactive)
14 | COc1ccc2c3c([nH]c2c1[N+](=O)[O-])C(C)N(Cc1ccccc1)CC3 (stereo unspecified) | 5.05 µM (inactive) | 3.17 µM (inactive) | 2.18 µM (inactive) | 0.643 µM (active) | 3.78 µM (inactive) | 3.76 µM (inactive) | – | 3.2 µM (inactive) | 2.94 µM (inactive) | – | 2.43 µM (inactive) | 9.1 µM (inactive) | 9.25 µM (inactive) | 2.39 µM (inactive) | 13.8 µM (inactive) | – | – | – | – | –
15 | CC1CC2CC(=O)CC3(C1)C2CCCN3CCCO (stereo unspecified) | > 100 µM (inactive) | > 100 µM (inactive) | > 100 µM (inactive) | > 100 µM (inactive) | – | > 100 µM (inactive) | > 100 µM (inactive) | > 100 µM (inactive) | > 100 µM (inactive) | > 100 µM (inactive) | > 100 µM (inactive) | > 100 µM (inactive) | > 100 µM (inactive) | > 100 µM (inactive) | > 100 µM (inactive) | – | > 100 µM (inactive) | – | – | > 100 µM (inactive)
16 | CN(C)c1n/c(=N/Cc2ccncc2)ss1 | > 10 µM (inactive) | 54.5 µM (inactive) | 4.39 µM (inactive) | 17 µM (inactive) | – | 16.8 µM (inactive) | – | 20.3 µM (inactive) | > 100 µM (inactive) | 16.1 µM (inactive) | 21 µM (inactive) | > 71.4 µM (inactive) | > 66.2 µM (inactive) | > 39.7 µM (inactive) | > 50 µM (inactive) | > 10 µM (inactive) | > 63.1 µM (inactive) | 37.8 µM (inactive) | 38.9 µM (inactive) | > 40 µM (inactive)
17 | CC1=NNC(=O)C1C1CC(c2c[nH]c3ccccc23)=NN(C(N)=O)C1=O (stereo unspecified) | 64 µM (inactive) | 53.2 µM (inactive) | 29 µM (inactive) | 33 µM (inactive) | – | > 100 µM (inactive) | – | 33.7 µM (inactive) | 62.4 µM (inactive) | 31.8 µM (inactive) | 30.8 µM (inactive) | 75 µM (inactive) | > 100 µM (inactive) | > 100 µM (inactive) | 28.7 µM (inactive) | > 100 µM (inactive) | > 100 µM (inactive) | > 100 µM (inactive) | 56 µM (inactive) | > 100 µM (inactive)
18 | CC(C)C(/N=C/c1ccccc1O)C(=O)O (stereo unspecified) | > 100 µM (inactive) | > 100 µM (inactive) | > 100 µM (inactive) | > 100 µM (inactive) | – | > 100 µM (inactive) | – | > 100 µM (inactive) | > 100 µM (inactive) | > 100 µM (inactive) | > 100 µM (inactive) | > 100 µM (inactive) | > 100 µM (inactive) | > 100 µM (inactive) | > 100 µM (inactive) | > 100 µM (inactive) | > 100 µM (inactive) | 87.9 µM (inactive) | > 100 µM (inactive) | > 100 µM (inactive)

Source: ChEMBL document CHEMBL1201862, “PubChem BioAssay data set” (2004)
